What was measured:
[1] = target: T1, human recombinant GST cleaved CSNK1D (Homo sapiens, UniProt P48730); assay: Purified Enzyme Assay (ADP-Glo CSNK1D Kinase Assay); assay type: biochemical; settings: 2 nM CSNK1D; peptide substrate 150 μM; ATP 20 μM; 45 minutes at room temperature
T1 construct: GST (cleaved yes); purchased University of Dundee clone DU 19064
How it was run: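 GST-cleaved human recombinant CSNK1D phosphorylates peptide PLSRTL-pS-VASLPGL with ATP; compounds added in dose-response, 45 min at room temperature. ADP formed measured by ADP-Glo luminescence and converted to percent activity.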

human CSNK1D = target: T2, human CSNK1D (Homo sapiens, UniProt P48730); assay: Whole Cell nBRET CSNK1D Binding Assay; settings: living CHO cells stably expressing human CSNK1D tagged with nanoluciferase; NanoBret tracer 130 nM; 2 hours at 37 C
T2 construct: expressed in transfected cells
T2 sequence (P48730 whole entry): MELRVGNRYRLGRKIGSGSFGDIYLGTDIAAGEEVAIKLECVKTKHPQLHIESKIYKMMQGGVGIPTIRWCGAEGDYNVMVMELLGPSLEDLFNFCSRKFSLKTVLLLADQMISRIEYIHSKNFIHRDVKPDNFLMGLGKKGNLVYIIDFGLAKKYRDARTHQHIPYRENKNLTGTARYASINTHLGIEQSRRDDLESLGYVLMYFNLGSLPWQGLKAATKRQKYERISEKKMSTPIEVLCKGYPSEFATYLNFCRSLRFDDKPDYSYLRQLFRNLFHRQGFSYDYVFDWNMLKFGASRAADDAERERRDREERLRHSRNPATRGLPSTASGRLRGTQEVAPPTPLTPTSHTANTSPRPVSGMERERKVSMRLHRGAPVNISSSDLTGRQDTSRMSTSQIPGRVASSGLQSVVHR

T1 sequence (P48730 whole entry): as above

Fc1ccc(-c2nn3c(c2-c2ccnc4[nH]ncc24)CO[C@@H](C2CCC2)C3)nc1 (single isomer, unassigned) [Example 111, (*S)-6-Cyclobutyl-2-(5-fluoropyridin-2-yl)-3-(1H-pyrazolo[3,4-b]pyridin-4-yl)-6,7-dihydro-4H-pyrazolo[5,1-c][1,4]oxazine]
IC50 [1]: 36 nM | IC50 (human CSNK1D): 1070 nM

Fc1ccc(-c2nn3c(c2-c2ccnc4[nH]ncc24)CO[C@H](C2CCC2)C3)nc1 (single isomer, unassigned) [Example 110, (*R)-6-Cyclobutyl-2-(5-fluoropyridin-2-yl)-3-(1H-pyrazolo[3,4-b]pyridin-4-yl)-6,7-dihydro-4H-pyrazolo[5,1-c][1,4]oxazine]
IC50 [1]: 49 nM | IC50 (human CSNK1D): 1170 nM

Fc1ccc(-c2nn3c(c2-c2ccnc4[nH]ncc24)CCC(F)(F)C3)cc1 [Example 42, 4-(6,6-Difluoro-2-(4-fluorophenyl)-4,5,6,7-tetrahydropyrazolo[1,5-a]pyridin-3-yl)-1H-pyrazolo[3,4-b]pyridine]
IC50 [1]: 3 nM | IC50 (human CSNK1D): 16 nM

Fc1ccc(-c2nn3c(c2-c2c(F)cnc4[nH]ncc24)C[C@H](F)C3)cc1 [Example 227, 5-Fluoro-4-[(5S)-5-fluoro-2-(4-fluorophenyl)-5,6-dihydro-4H-pyrrolo[1,2-b]pyrazol-3-yl]-1H-pyrazolo[3,4-b]pyridine]
IC50 [1]: 1 nM | IC50 (human CSNK1D): 3 nM

C[C@H]1n2nc(-c3ccc(F)cn3)c(-c3ccnc4[nH]ncc34)c2COC1(C)C (single isomer, unassigned) [Example 173, (*R)-2-(5-Fluoropyridin-2-yl)-6,6,7-trimethyl-3-(1H-pyrazolo[3,4-b]pyridin-4-yl)-6,7-dihydro-4H-pyrazolo[5,1-c][1,4]oxazine]
IC50 [1]: 42 nM | IC50 (human CSNK1D): 840 nM

CC1(C)CCn2nc(-c3ccc(F)cc3)c(-c3ccnc4[nH]ncc34)c21 [Example 245, 4-[2-(4-Fluorophenyl)-4,4-dimethyl-5,6-dihydropyrrolo[1,2-b]pyrazol-3-yl]-1H-pyrazolo[3,4-b]pyridine]
IC50 [1]: 5 nM | IC50 (human CSNK1D): 43 nM

Cc1cc(-c2c(-c3ccc(F)cn3)nn3c2CO[C@@](C)(C(F)(F)F)C3)c2cn[nH]c2n1 (single isomer, unassigned) [Example 180, (*R)-2-(5-Fluoropyridin-2-yl)-6-methyl-3-(6-methyl-1H-pyrazolo[3,4-b]pyridin-4-yl)-6-(trifluoromethyl)-6,7-dihydro-4H-pyrazolo[5,1-c][1,4]oxazine]
IC50 [1]: 54 nM | IC50 (human CSNK1D): 252 nM

Cc1nc(-c2c(-c3ccc(F)cc3)nn3c2CCC(F)(F)C3)c2cn[nH]c2n1 [Example 279, 4-[6,6-Difluoro-2-(4-fluorophenyl)-5,7-dihydro-4H-pyrazolo[1,5-a]pyridin-3-yl]-6-methyl-1H-pyrazolo[3,4-d]pyrimidine]
IC50 [1]: 5 nM | IC50 (human CSNK1D): 74 nM

Cc1cc(-c2c(-c3ccc(F)cn3)nn3c2O[C@@H](C)C[C@@H]3C)c2cn[nH]c2n1 (single isomer, unassigned) [Example 209, (5*S,7*S)-2-(5-Fluoro-2-pyridyl)-5,7-dimethyl-3-(6-methyl-1H-pyrazolo[3,4-b]pyridin-4-yl)-6,7-dihydro-5H-pyrazolo[5,1-b][1,3]oxazine]
IC50 [1]: 8 nM | IC50 (human CSNK1D): 165 nM

C[C@@H]1CCn2nc(-c3ccc(F)cn3)c(-c3ccnc4[nH]ncc34)c2O1 (single isomer, unassigned) [Example 199, (*R)-2-(5-Fluoro-2-pyridyl)-5-methyl-3-(1H-pyrazolo[3,4-b]pyridin-4-yl)-6,7-dihydro-5H-pyrazolo[5,1-b][1,3]oxazine]
IC50 [1]: 12 nM | IC50 (human CSNK1D): 186 nM

Fc1ccc(-c2nn3c(c2-c2ccnc4[nH]ncc24)CC(F)(F)CC3)nc1 [Example 48, 4-[5,5-Difluoro-2-(5-fluoro-2-pyridyl)-6,7-dihydro-4H-pyrazolo[1,5-a]pyridin-3-yl]-1H-pyrazolo[3,4-b]pyridine]
IC50 [1]: 40 nM | IC50 (human CSNK1D): 924 nM

Fc1ccc(-c2nn3c(c2-c2ccn4nccc4c2)CC[C@H]2[C@@H]3C2(F)F)cc1 (stereo in doubt) [Example 353, (5a*S,6a*R)-6,6-Difluoro-2-(4-fluorophenyl)-3-(pyrazolo[1,5-a]pyridin-4-yl)-5,5a,6,6a-tetrahydro-4H-cyclopropa[e]pyrazolo[1,5-a]pyridine]
IC50 [1]: 1120 nM | IC50 (human CSNK1D): 3830 nM

Cc1nc2[nH]ncc2c(-c2c(-c3ccc(F)cn3)nn3c2OC[C@H]2C[C@H]2C3)c1F (stereo in doubt) [Example 482, (5a*R,6a*S)-3-(5-Fluoro-6-methyl-1H-pyrazolo[3,4-b]pyridin-4-yl)-2-(5-fluoropyridin-2-yl)-5a,6,6a,7-tetrahydro-5H-cyclopropa[e]pyrazolo[5,1-b][1,3]oxazepine]
IC50 [1]: 8 nM | IC50 (human CSNK1D): 79 nM

Fc1ccc(-c2nn3c(c2-c2ccnc4[nH]ncc24)[C@@H]2CC[C@H]3C2)nc1 (single isomer, unassigned) [Example 62, (4*R,7*S)-2-(5-Fluoropyridin-2-yl)-3-(1H-pyrazolo[3,4-b]pyridin-4-yl)-4,5,6,7-tetrahydro-4,7-methanopyrazolo[1,5-a]pyridine]
IC50 [1]: 6 nM | IC50 (human CSNK1D): 55 nM

Fc1ccc(-c2nn3c(c2-c2c(F)cnc4[nH]ncc24)C[C@@H]2C[C@@H]23)nc1 [Example 272, (4aS,5aS)-3-(5-Fluoro-1H-pyrazolo[3,4-b]pyridin-4-yl)-2-(5-fluoropyridin-2-yl)-4,4a,5,5a-tetrahydrocyclopropa[4,5]pyrrolo[1,2-b]pyrazole]
IC50 [1]: 2 nM | IC50 (human CSNK1D): 71 nM

Cc1n[nH]c2nc(C(F)F)cc(-c3c(-c4ccc(F)cc4)nn4c3COC(C(F)(F)F)C4)c12 (single isomer, unassigned) [Example 374, (*S)-3-[6-(Difluoromethyl)-3-methyl-1H-pyrazolo[3,4-b]pyridin-4-yl]-2-(4-fluorophenyl)-6-(trifluoromethyl)-6,7-dihydro-4H-pyrazolo[5,1-c][1,4]oxazine]
IC50 [1]: 293 nM | IC50 (human CSNK1D): > 10000 nM

Cc1cc(-c2c(-c3ccc(F)cn3)nn3c2OCC2(CC2)C3)c2cn[nH]c2n1 [Example 462, 2′-(5-Fluoropyridin-2-yl)-3′-(6-methyl-1H-pyrazolo[3,4-b]pyridin-4-yl)-5′H,7′H-spiro[cyclopropane-1,6′-pyrazolo[5,1-b][1,3]oxazine]]
IC50 [1]: 1 nM | IC50 (human CSNK1D): 20 nM

CC1(C)Cn2nc(-c3ccc(F)cn3)c(-c3ccn4nccc4c3)c2CO1 [Example 140, 2-(5-Fluoropyridin-2-yl)-6,6-dimethyl-3-(pyrazolo[1,5-a]pyridin-5-yl)-6,7-dihydro-4H-pyrazolo[5,1-c][1,4]oxazine]
IC50 [1]: 18 nM | IC50 (human CSNK1D): 122 nM

Cc1cc(-c2c(-c3ccc(F)cc3)nn3c2[C@H]2CC[C@@H]3C2)c2cn[nH]c2n1 (single isomer, unassigned) [Example 365, (4*S,7*R)-2-(4-Fluorophenyl)-3-(6-methyl-1H-pyrazolo[3,4-b]pyridin-4-yl)-4,5,6,7-tetrahydro-4,7-methanopyrazolo[1,5-a]pyridine]
IC50 [1]: 1 nM | IC50 (human CSNK1D): 8 nM

FCC1Cn2nc(-c3ccc(F)cc3)c(-c3ccnc4[nH]ncc34)c2CO1 (single isomer, unassigned) [Example 105, (*R)-(Fluoromethyl)-2-(4-fluorophenyl)-3-(1H-pyrazolo[3,4-b]pyridin-4-yl)-6,7-dihydro-4H-pyrazolo[5,1-c][1,4]oxazine]
IC50 [1]: 4 nM | IC50 (human CSNK1D): 46 nM

[2H]C([2H])([2H])[C@]1(C(F)(F)F)Cn2nc(-c3ccc(F)cn3)c(-c3c(F)c(C)nc4[nH]nc(C)c34)c2CO1 (single isomer, unassigned) [Example 430, (*R)-3-(5-Fluoro-3,6-dimethyl-1H-pyrazolo[3,4-b]pyridin-4-yl)-2-(5-fluoropyridin-2-yl)-6-(methyl-d3)-6-(trifluoromethyl)-6,7-dihydro-4H-pyrazolo[5,1-c][1,4]oxazine]
IC50 [1]: 92 nM | IC50 (human CSNK1D): 1190 nM

Cc1cn2nccc2cc1-c1c(-c2ccc(F)cn2)nn2c1OCC(C)(C)C2 [Example 451, 2-(5-Fluoro-2-pyridyl)-6,6-dimethyl-3-(6-methylpyrazolo[1,5-a]pyridin-5-yl)-5,7-dihydropyrazolo[5,1-b][1,3]oxazine]
IC50 [1]: 132 nM | IC50 (human CSNK1D): 5760 nM

Cc1nc2[nH]ncc2c(-c2c(-c3ccc(F)cn3)nn3c2CC[C@H]2[C@@H]3C2(F)F)c1F (single isomer, unassigned) [Example 357, (5a*S,6a*R)-6,6-Difluoro-3-(5-fluoro-6-methyl-1H-pyrazolo[3,4-b]pyridin-4-yl)-2-(5-fluoropyridin-2-yl)-5,5a,6,6a-tetrahydro-4H-cyclopropa[e]pyrazolo[1,5-a]pyridine]
IC50 [1]: 8 nM | IC50 (human CSNK1D): 40 nM

CC1(C)Cn2nc(-c3ccc(Cl)cn3)c(-c3ccnc4[nH]ncc34)c2CO1 [Example 146, 2-(5-Chloropyridin-2-yl)-6,6-dimethyl-3-(1H-pyrazolo[3,4-b]pyridin-4-yl)-6,7-dihydro-4H-pyrazolo[5,1-c][1,4]oxazine]
IC50 [1]: 18 nM | IC50 (human CSNK1D): 359 nM

Cn1cnc(-c2nn3c(c2-c2ccnc4[nH]ncc24)COC(C)(C)C3)c1 [Example 127, 6,6-Dimethyl-2-(1-methyl-1H-imidazol-4-yl)-3-(1H-pyrazolo[3,4-b]pyridin-4-yl)-6,7-dihydro-4H-pyrazolo[5,1-c][1,4]oxazine]
IC50 [1]: 51 nM | IC50 (human CSNK1D): 3250 nM

Cc1cc(-c2c(-c3ncc(F)cc3F)nn3c2CCCC3)c2cn[nH]c2n1 [Example 37, 4-[2-(3,5-Difluoro-2-pyridyl)-4,5,6,7-tetrahydropyrazolo[1,5-a]pyridin-3-yl]-6-methyl-1H-pyrazolo[3,4-b]pyridine]
IC50 [1]: 11 nM | IC50 (human CSNK1D): 210 nM
